# Data taken from ChEMBL document CHEMBL1131281, “Cyclopentanedi- and tricarboxylic acids as squalene synthase inhibitors: syntheses and evaluation” (Bioorg Med Chem Lett, 1998).
# What was measured:
# [1] = molecular target: T1, Squalene synthase (Rattus norvegicus, UniProt Q02769); experiment: Compound was tested for inhibition of squalene synthase from rat liver microsomes using [3H]farnesyl pyrophosphate (FPP) as substrate
# T1 sequence (Q02769 whole entry): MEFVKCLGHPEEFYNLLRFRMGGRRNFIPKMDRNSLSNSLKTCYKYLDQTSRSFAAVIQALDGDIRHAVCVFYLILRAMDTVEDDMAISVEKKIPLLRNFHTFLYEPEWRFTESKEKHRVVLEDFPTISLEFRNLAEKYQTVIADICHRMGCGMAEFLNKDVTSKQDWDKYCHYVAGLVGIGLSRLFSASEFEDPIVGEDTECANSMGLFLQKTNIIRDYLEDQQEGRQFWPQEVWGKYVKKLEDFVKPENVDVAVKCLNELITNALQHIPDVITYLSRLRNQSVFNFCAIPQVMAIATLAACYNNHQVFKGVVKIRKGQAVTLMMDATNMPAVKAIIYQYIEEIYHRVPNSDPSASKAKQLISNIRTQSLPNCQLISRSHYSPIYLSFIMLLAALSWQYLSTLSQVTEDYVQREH
# [2] = molecular target: T2, Squalene synthase (Rattus norvegicus) (UniProt Q02769); experiment: Percent inhibition of squalene synthase from rat liver microsomes using [3H]farnesyl pyrophosphate (FPP) as substrate at 1 uM concentration
# T2 sequence (whole entry): T1 sequence (Q02769 whole entry)
# [3] = molecular target: T1, Squalene synthase; experiment: Percent inhibition of squalene synthase from rat liver microsomes using [3H]farnesyl pyrophosphate (FPP) as substrate; NA indicates <20% inhibition at 1 uM concentration
SMILES,IC50 [1],inhibition [2],also measured
CCCN(Cc1ccc(Oc2ccccc2)cc1)C(=O)[C@H]1C[C@@H](C(=O)N(CCC)Cc2ccc(Oc3ccccc3)cc2)[C@](CC(=O)O)(C(=O)O)[C@H]1C(=O)O,240 nM,–,–
CCCN(Cc1ccc(Oc2ccccc2)cc1)C(=O)[C@H]1[C@@H](C(=O)O)[C@H](C(=O)O)O[C@@H]1C(=O)N(CCC)Cc1ccc(Oc2ccccc2)cc1,3000 nM,–,–
CCCN(Cc1ccc(Oc2ccccc2)cc1)C(=O)[C@H]1C[C@@H](C(=O)N(CCC)Cc2ccc(Oc3ccccc3)cc2)[C@](CC(=O)O)(C(=O)O)C1,–,–,IC50 [3]: Not Active
CCCN(Cc1ccc(Oc2ccccc2)cc1)C(=O)[C@H]1C[C@@H](C(=O)N(CCC)Cc2ccc(Oc3ccccc3)cc2)[C@H](C(=O)O)[C@H]1C(=O)O,580 nM,–,–
CCCN(Cc1ccc(Oc2ccccc2)cc1)C(=O)[C@H]1C[C@@H](C(=O)N(CCC)Cc2ccc(Oc3ccccc3)cc2)[C@@](CC(=O)O)(C(=O)O)[C@@H]1C(=O)O,–,38%,–
CCCN(Cc1ccc(Oc2ccccc2)cc1)C(=O)[C@@H]1[C@@H](C(=O)N(CCC)Cc2ccc(Oc3ccccc3)cc2)[C@H](C(=O)O)C[C@@H]1C(=O)O,–,45%,–
CCCN(Cc1ccc(Oc2ccccc2)cc1)C(=O)[C@@H]1[C@H](C(=O)O)[C@@H](C(=O)N(CCC)Cc2ccc(Oc3ccccc3)cc2)O[C@H]1C(=O)O,–,–,IC50 [3]: Not Active

# More lines, main results first:
IC50 [1],inhibition [2],SMILES,also measured
9100 nM,–,CCCN(Cc1ccc(Oc2ccccc2)cc1)C(=O)[C@@H]1[C@H](C(=O)N(CCC)Cc2ccc(Oc3ccccc3)cc2)[C@H](C(=O)O)C[C@@H]1C(=O)O,–
–,44%,CCCN(Cc1ccc(Oc2ccccc2)cc1)C(=O)[C@H]1C[C@@H](C(=O)N(CCC)Cc2ccc(Oc3ccccc3)cc2)[C@@](CC(=O)O)(C(=O)O)C1,–
–,25%,CCCN(Cc1ccc(Oc2ccccc2)cc1)C(=O)[C@H]1C[C@@H](C(=O)N(CCC)Cc2ccc(Oc3ccccc3)cc2)[C@@](CC(=O)O)(C(=O)O)[C@H]1C(=O)O,–
2900 nM,–,CCCN(Cc1ccc(Oc2ccccc2)cc1)C(=O)[C@H]1[C@@H](C(=O)O)[C@@H](C(=O)N(CCC)Cc2ccc(Oc3ccccc3)cc2)C[C@H]1C(=O)O,–
170 nM,–,CCCN(Cc1ccc(Oc2ccccc2)cc1)C(=O)[C@H]1C[C@H](C(=O)N(CCC)Cc2ccc(Oc3ccccc3)cc2)[C@H](C(=O)O)[C@H]1C(=O)O,–
–,24%,CCCN(Cc1ccc(Oc2ccccc2)cc1)C(=O)[C@@H]1[C@@H](C(=O)N(CCC)Cc2ccc(Oc3ccccc3)cc2)[C@@H](C(=O)O)C[C@@H]1C(=O)O,–
